Results as given in PMC9595134, “Novel pituitary actions of GnRH in teleost: The link between reproduction and feeding regulation” (Frontiers in Endocrinology, 2022).
Where a SMILES comes first, the peptide text is derived from it. [ ]: non-standard residue; d: D form. pGlu = O=C1CC[C@@H](C(=O)O)N1

Tested on: grass carp pituitary cells
Experiment: RNA-seq of pituitary cells treated with GnRH3
Assay type: cell-based, grass carp (Ctenopharyngodon idellus)
Conditions: GnRH3 1 μM, 24 h
Text: Then, total RNA was extracted from each well by TRIzol reagent (Yeasen) and DNase II was used to eliminate the interference of genomic DNA. The concentration and purity of each RNA sample were detected by a NanoDrop 2000 spectrophotometer, while the quality of RNA was identified on an Agilent 2100 Bioanalyzer using the RNA 6000 Nano Kit (Agilent Technologies, Santa Clara, CA, USA). […] In this study, a read depth of 0.6 billion 150-bp single-end reads was used and about 90% of reads were mapped to the genome. Gene expression levels were assigned individual values by being normalized to the number of transcripts per kilobase of exon model per million […]. […] The P-value indicated the credibility of each differential gene expression and was corrected by the false discovery rate (FDR) ([21]). […] In the present study, using grass carp pituitary cells as model, high-throughput RNA-seq was used to examine the pituitary actions of GnRH3 in teleost. […] The most abundant GO terms among the cellular component category were ‘intracellular part’, ‘membrane-bounded organelle’, ‘intracellular membrane-bounded organelle’, ‘organelle part’, and ‘intracellular organelle part’. Furthermore, the plentiful groups of biological processes were ‘metabolic process’, ‘organic substance metabolic process’, ‘primary metabolic process’, ‘cellular metabolic process’, and ‘biological regulation ( Figure 3A ).

In the case of `CC(C)C[C@H](NC(=O)[C@H](Cc1c[nH]c2ccccc12)NC(=O)CNC(=O)[C@H](Cc1ccc(O)cc1)NC(=O)[C@H](CO)NC(=O)[C@H](Cc1c[nH]c2ccccc12)NC(=O)[C@H](Cc1c[nH]cn1)NC(=O)[C@@H]1CCC(=O)N1)C(=O)N1CCC[C@H]1C(=O)NCC(N)=O` [GnRH3] ([pGlu]HWSYGWLPG-NH2), the “fold change (FC), suhb mRNA” value (3-Beta-hydroxysteroid sulfotransferase, FDR 2.86E-22) is reported as 0.44, the “fold change (FC), atp5me mRNA” value (ATP synthase subunit e, FDR 5.40E-07) is reported as 0.69 and the “fold change (FC), arpc4 mRNA” value (Actin-related protein 2/3 subunit 4-like, FDR 1.86E-42) is reported as 0.66. For the same molecule, the “fold change (FC), creb2 mRNA” value (Activating transcription factor 4b, FDR 1.69E-07) was 1.56, the “fold change (FC), cart2 mRNA” value (Amphetamine-regulated transcript II precursor, FDR 1.73E-22) was 19.16 and the “fold change (FC), anx11 mRNA” value (Annexin 11a, FDR 0) was 3.17. The “fold change (FC), mx1 mRNA” value (Antiviral effector Mx3, FDR 0.004203) was 0.29, the “fold change (FC), manf mRNA” value (Astrocyte-derived neurotrophic factor, FDR 6.58E-124) was 1.71 and the “fold change (FC), npr3 mRNA” value (Atrial natriuretic peptide receptor 3 isoform X1, FDR 0) was 11.53. For the same molecule, the “fold change (FC), e2.7.3.2 mRNA” value (Brain creatine kinase b, FDR 0) was 3.88, the “fold change (FC), agrb1 mRNA” value (Brain-specific angiogenesis inhibitor 1-like, FDR 0) was 8.87 and the “fold change (FC), calm mRNA” value (Calmodulin, FDR 2.37E-221) was 0.68. The “fold change (FC), ctsl mRNA” value (Cathepsin La isoform X1, FDR 0) was 2.55, the “fold change (FC), cckar mRNA” value (Cholecystokinin receptor-like isoform, FDR 0.40) was 1.41 and the “fold change (FC), chd4 mRNA” value (Chromodomain-DNA-binding protein 4, FDR 3.30E-172) was 0.64. The “fold change (FC), ctro mRNA” value (Citron Rho-interacting kinase, FDR 3.29E-164) was 5.24, the “fold change (FC), bha15 mRNA” value (Class A basic helix-loop-helix protein 15, FDR 0) was 1.66 and the “fold change (FC), sod1 mRNA” value (Copper/zinc superoxide dismutase, FDR 1.09E-31) was 0.69. The “fold change (FC), mdh1 mRNA” value (Cytosolic malate dehydrogenase, FDR 4.31E-77) was 0.68, the “fold change (FC), dgkz mRNA” value (Diacylglycerol kinase zeta-like isoform X1, FDR 0.003213) was 0.41 and the “fold change (FC), drd2 mRNA” value (Dopamine D2 receptor, FDR 2.63E-37) was 0.35. The “fold change (FC), rergl mRNA” value (Estrogen-regulated inhibitor-like protein, FDR 2.35E-26) was 6.29, the “fold change (FC), npy2r mRNA” value (Europeptide Y receptor type 2-like, FDR 0.07342027) was 0.44 and the “fold change (FC), fabp7 mRNA” value (Fatty acid binding protein 7, FDR 5.12E-107) was 0.50. The “fold change (FC), fabp3 mRNA” value (Fatty-acid binding protein 3b, FDR 1.56E-177) was 0.63, the “fold change (FC), fth1 mRNA” value (Ferritin heavy chain, FDR 0) was 1.90 and the “fold change (FC), gmpr1 mRNA” value (GMP reductase 1, FDR 2.64E-126) was 0.61. For the same molecule, the “fold change (FC), bip mRNA” value (GRP78, FDR 5.39E-31) was 1.78, the “fold change (FC), ggh mRNA” value (Gamma-glutamyl hydrolase, FDR 1.06E-186) was 1.51 and the “fold change (FC), grp mRNA” value (Gastrin-releasing peptide-like, FDR 1.46E-176) was 1.52. For the same molecule, the “fold change (FC), gst mRNA” value (Glutathione S-transferase, FDR 8.59E-06) was 0.67, the “fold change (FC), gphb5 mRNA” value (Glycoprotein hormone beta-5, FDR 2.13E-64) was 0.69 and the “fold change (FC), gthα mRNA” value (Glycoprotein hormones alpha chain, FDR 0) was 1.28. The “total number of different expression genes (DEGs)” value (three replicates, TPM >5, FDR <0.05) was 820, the “number of downregulated genes” value (three replicates, TPM >5, FDR <0.05, FC <0.7) was 575 and the “number of upregulated genes” value (three replicates, TPM >5, FDR <0.05, FC >1.5) was 245. For the same molecule, the “fold change (FC), pa2g3 mRNA” value (Group 3 secretory phospholipase A2-like, FDR 6.47E-212) was 0.29, the “fold change (FC), hpt mRNA” value (Haptoglobin-like, FDR 4.16E-131) was 5.16 and the “fold change (FC), hmgb1 mRNA” value (High-mobility group box 1, FDR 7.95E-46) was 0.69. For the same molecule, the “fold change (FC), hint1 mRNA” value (Histidine triad nucleotide-binding protein 1, FDR 7.80E-16) was 0.66, the “fold change (FC), h2a mRNA” value (Histone H2A, FDR 1.56E-20) was 0.63 and the “fold change (FC), h2b3 mRNA” value (Histone H2B 3, FDR 4.58E-23) was 0.53. For the same molecule, the “fold change (FC), h4 mRNA” value (Histone H4, FDR 0.002615) was 0.68, the “fold change (FC), inhba mRNA” value (Inhibin-beta A, FDR 1.08E-11) was 1.90 and the “fold change (FC), il10ra mRNA” value (Interleukin-10 receptor 1, FDR 0.009871) was 27.19. The “fold change (FC), erg7 mRNA” value (Lanosterol synthase, FDR 1.00E-62) was 0.43, the “fold change (FC), lepr mRNA” value (Leptin receptor long form, FDR 6.73E-61) was 2.60 and the “fold change (FC), lhβ mRNA” value (Luteinizing hormone, FDR 0) was 1.32. The “fold change (FC), rfx1 mRNA” value (MHC class II regulatory factor RFX1, FDR 0) was 0.28, the “fold change (FC), mvp mRNA” value (Major vault protein, FDR 2.14E-255) was 0.64 and the “fold change (FC), mshr1 mRNA” value (Melanocyte-stimulating hormone receptor, FDR 0) was 0.43. For the same molecule, the “fold change (FC), m3k20 mRNA” value (Mitogen-activated protein kinase kinase 20, FDR 0.00526) was 0.31, the “fold change (FC), smad7 mRNA” value (Mothers against decapentaplegic homolog 7, FDR 7.44E-31) was 1.78 and the “fold change (FC), mcfd2 mRNA” value (Multiple coagulation factor deficiency protein, FDR 3.57E-236) was 1.65. For the same molecule, the “fold change (FC), marcksl1b mRNA” value (Myristoylated alanine-rich C substrate 2, FDR 2.63E-101) was 0.67, the “fold change (FC), nab1 mRNA” value (NGFI-A-binding protein 1, FDR 3.65E-131) was 5.88 and the “fold change (FC), nec1 mRNA” value (Neuroendocrine convertase 1, FDR 0) was 1.54. For the same molecule, the “fold change (FC), nfasc mRNA” value (Neurofascin, FDR 5.61E-52) was 10.71, the “fold change (FC), nmb mRNA” value (Neuromedin-B-like, FDR 4.39E-07) was 3.29 and the “fold change (FC), nltp mRNA” value (Non-specific lipid-transfer protein, FDR 2.86E-12) was 0.41. The “fold change (FC), nucb1 mRNA” value (Nucleobindin-1 precursor, FDR 1.72E-149) was 1.56, the “fold change (FC), nlrp3 mRNA” value (PYD domains-containing protein 3-like, FDR 0.000497) was 0.26 and the “fold change (FC), fkbp11 mRNA” value (Peptidyl-prolyl cis-trans isomerase, FDR 0) was 1.94. The “fold change (FC), gpr61 mRNA” value (Probable G-protein coupled receptor-like, FDR 2.17E-78) was 7.06, the “fold change (FC), pdyn mRNA” value (Proenkephalin-B-like isoform X1, FDR 7.38E-17) was 5.14 and the “fold change (FC), prl mRNA” value (Prolactin, FDR 0) was 1.22. The “fold change (FC), s100b mRNA” value (Protein S100-B, FDR 3.01E-240) was 0.31, the “fold change (FC), ppp1r17 mRNA” value (Protein phosphatase 1 regulatory 17-like, FDR 2.87E-10) was 0.68 and the “fold change (FC), r4rl2 mRNA” value (Reticulon 4 receptor-like 2b precursor, FDR 6.85E-299) was 93.68. For the same molecule, the “fold change (FC), estd mRNA” value (S-formylglutathione hydrolase, FDR 4.80E-36) was 0.37, the “fold change (FC), scg2 mRNA” value (Secretogranin II precursor, FDR 0) was 1.51 and the “fold change (FC), sqstm1 mRNA” value (Sequestosome-1 isoform X1, FDR 0) was 1.69. For the same molecule, the “fold change (FC), cdc42bp mRNA” value (Serine/threonine-protein kinase MRCK beta, FDR 0.004184) was 0.37, the “fold change (FC), plk2 mRNA” value (Serine/threonine-protein kinase PLK2, FDR 0) was 5.78 and the “fold change (FC), sec11 mRNA” value (Signal peptidase complex catalytic subunit, FDR 1.55E-131) was 1.55. The “fold change (FC), spcs3 mRNA” value (Signal peptidase complex subunit 3, FDR 2.74E-239) was 1.77, the “fold change (FC), sstr3 mRNA” value (Somatostatin receptor type 3, FDR 3.09E-126) was 0.42 and the “fold change (FC), stat4 mRNA” value (Stat 4-like, FDR 9.86E-21) was 0.86. The “fold change (FC), stat5a mRNA” value (Stat5.2 protein, FDR 0.04174356) was 0.89, the “fold change (FC), sdf2l mRNA” value (Stromal cell-derived factor 2-like 1, FDR 1.30E-57) was 1.55 and the “fold change (FC), tt39b mRNA” value (Tetratricopeptide repeat protein 39B-like, FDR 6.74E-06) was 6.76. For the same molecule, the “fold change (FC), rdl mRNA” value (Thiosulfate sulfurtransferase, FDR 3.51E-111) was 1.57, the “fold change (FC), ppp1r10 mRNA” value (Threonine-protein phosphatase 1 regulatory, FDR 2.43E-39) was 0.42 and the “fold change (FC), junb mRNA” value (Transcription factor jun-B, FDR 2.36E-96) was 1.89. For the same molecule, the “fold change (FC), rhoa mRNA” value (Transforming protein rhoa, FDR 0.042946) was 0.32, the “fold change (FC), tpisb mRNA” value (Triosephosphate isomerase B, FDR 8.61E-53) was 0.68 and the “fold change (FC), tph1 mRNA” value (Tryptophan 5-hydroxylase 1, FDR 0) was 17.70. The “fold change (FC), tubb mRNA” value (Tubulin beta-4B chain, FDR 3.79E-49) was 0.40, the “fold change (FC), tsg6 mRNA” value (Tumor necrosis factor-inducible gene 6 protein, FDR 1.99E-06) was 5.12 and the “fold change (FC), crh mRNA” value (Urotensin 1, FDR 6.72E-06) was 1.74. The “fold change (FC), snf8 mRNA” value (Vacuolar-sorting protein SNF8-like, FDR 1.18E-06) was 0.44, the “fold change (FC), vdac3 mRNA” value (Voltage-dependent anion-selective protein 3, FDR 5.87E-44) was 0.69 and the “fold change (FC), zbtb8 mRNA” value (Zinc finger domain-containing protein 8A, FDR 1.08E-73) was 1.69. The “fold change (FC), zfp36l mRNA” value (Zinc finger protein 36, C3H type-like 1b, FDR 1.92E-125) was 0.66 and the “fold change (FC), pim1 mRNA” value (threonine-protein kinase pim-1, FDR 0) was 3.25.
